{"source": "patent US11254651B2", "about": "“Histone methyltransferase inhibitors” (GLOBAL BLOOD THERAPEUTICS, INC., priority 2016, dated 2022)", "tested_on": "HGS tumor model", "test": "anti-tumor activity in HGS tumor model", "format": "in vivo", "details": "animals treated with 20/kg of compound", "from_the_text": "[…]"}
{"smiles": "C=CC(=O)N1CCN(CCCn2c(=O)c(-c3c(Cl)c(OC)cc(OC)c3Cl)cc3cnc(NC)nc32)CC1", "note": "[8-(3-(4-acryloylpiperazin-1-yl)propyl)-6-(2,6-dichloro-3,5-dimethoxyphenyl)-2-(methylamino)pyrido[2,3-d]pyrimidin-7(8H)-one]", "values": [{"measurement": "antitumor activity", "result": "significant antitumor activity and induced tumor regression"}, {"measurement": "tumor size", "setting": "day 42 after inoculation", "result": 55, "unit": "mm3"}]}
